From US20230165980A1, “METHODS FOR RADIOLABELING PSMA BINDING LIGANDS AND THEIR KITS” (Novartis AG, priority 2020, published 2023)

Assay: Radiochemical purity and radiochemical stability of ^68GaPSMA-11 by HPLC
Format: physicochemical
Method: Radiochemical Purity and Identification of ^68GaPSMA-11 by HPLC
Chromatographic Conditions
Radical Scavenger to be used for the improvement of the radiochemical stability of ^68Ga-PSMA-11, tests were performed according to a varied approach in order to consider all the parameters that may affect the radiochemical purity of the product (activity, pH, volume, amount of Gentisic Acid).
Stability tests were performed on the freeze dried product containing the final formulation. […] Kits manufactured with the final formulation, indeed, were stored at different stability conditions (2-8° C.; 25° C. and 40° C.) and were tested at different time points for API-assay, Radiochemical Purity and Radiochemical Stability of the radiolabelled product. Radiochemical Purity and Stability were assessed only eluting IRE Generator which represented the most stressful condition in terms of Radioactive Concentration (Volumic Activity).

[1] = t4 h, Gentisic Acid 0 μg, IRE 17.19 mCi, 1 mL, pH 5.24
[2] = t4 h, Gentisic Acid 200 μg, IRE 17.85 mCi, 1 mL, pH 5.22
[3] = t4 h, Gentisic Acid 200 μg, IRE 18.07 mCi, 1 mL, pH 5.25
[4] = t4 h, Gentisic Acid 200 μg, ITG 35.92 mCi, 4 mL, pH 4.83
[5] = t4 h, Gentisic Acid 400 μg, IRE 17.44 mCi, 1 mL, pH 5.13
[6] = t4 h, Gentisic Acid 400 μg, IRE 17.79 mCi, 1 mL, pH 5.11
[7] = t4 h, Gentisic Acid 400 μg, ITG 16.9 mCi, 4 mL, pH 4.85
[8] = t4 h, Gentisic Acid 400 μg, ITG 31.97 mCi, 4 mL, pH 4.81
[9] = t4 h, Gentisic Acid 1000 μg, E&Z 15.65 mCi, 5 mL, pH 3.75
[10] = t4 h, Gentisic Acid 1000 μg, IRE 17.1 mCi, 1 mL, pH 5.08
[11] = t4 h, Gentisic Acid 1000 μg, ITG 30.9 mCi, 4 mL, pH 4.87
[12] = t4 h, final formulation kit at Release, E&Z 15.65 mCi, 5 mL, pH 3.75
[13] = t4 h, final formulation kit at Release, E&Z 16.80 mCi, 5 mL, pH 3.75
[14] = t4 h, final formulation kit at Release, IRE 32.27 mCi, 1 mL, pH 4.95
[15] = t4 h, final formulation kit at Release, IRE 32.95 mCi, 1 mL, pH 5.07
[16] = t4 h, final formulation kit at Release, ITG 29.74 mCi, 4 mL, pH 4.67
[17] = t4 h, final formulation kit at Release, ITG 30.90 mCi, 4 mL, pH 4.67
[18] = t4 h, kit stored 3 months at 2-8° C., IRE 25.76 mCi, 1 mL, pH 5.29
[19] = t4 h, kit stored 3 months at 25° C., IRE 24.56 mCi, 1 mL, pH 5.16
[20] = t4 h, kit stored 3 months at 40° C., IRE 24.86 mCi, 1 mL, pH 5.23
[21] = t4 h, kit stored 6 months at 2-8° C., IRE 19.90 mCi, 1 mL, pH 5.13
[22] = t4 h, kit stored 6 months at 25° C., IRE 18.88 mCi, 1 mL, pH 5.09
[23] = t4 h, kit stored 6 months at 40° C., IRE 19.34 mCi, 1 mL, pH 5.15

Substance: ^68Ga-PSMA-11 [[^68Ga] Gallium PSMA-11]
- [^68Ga] Gallium main degradant, HPLC (t0 h, kit stored 6 months at 40° C., IRE 19.34 mCi, 1 mL, pH 5.15): 0.42%
- [^68Ga] Gallium PSMA-11 (sum of stereosiomers), HPLC [1]: 90.89%
- [^68Ga] Gallium free, HPLC [1]: 0.14%
- [^68Ga] Gallium main degradant, HPLC [1]: 7.32%
- [^68Ga] Gallium PSMA-11 (sum of stereosiomers), HPLC [2]: 97.87%
- [^68Ga] Gallium free, HPLC [2]: 0.00%
- [^68Ga] Gallium main degradant, HPLC [2]: 1.80%
- [^68Ga] Gallium PSMA-11 (sum of stereosiomers), HPLC [3]: 97.80%
- [^68Ga] Gallium free, HPLC [3]: 0.00%
- [^68Ga] Gallium main degradant, HPLC [3]: 1.74%
- [^68Ga] Gallium PSMA-11 (sum of stereosiomers), HPLC [4]: 99.72%
- [^68Ga] Gallium free, HPLC [4]: 0.00%
- [^68Ga] Gallium main degradant, HPLC [4]: 0.00%
- [^68Ga] Gallium PSMA-11 (sum of stereosiomers), HPLC [5]: 99.20%
- [^68Ga] Gallium free, HPLC [5]: 0.00%
- [^68Ga] Gallium main degradant, HPLC [5]: 0.68%
- [^68Ga] Gallium PSMA-11 (sum of stereosiomers), HPLC [6]: 98.46%
- [^68Ga] Gallium free, HPLC [6]: 0.00%
- [^68Ga] Gallium main degradant, HPLC [6]: 1.54%
- [^68Ga] Gallium PSMA-11 (sum of stereosiomers), HPLC [7]: 98.24%
- [^68Ga] Gallium free, HPLC [7]: 0.00%
- [^68Ga] Gallium main degradant, HPLC [7]: 0.00%
- [^68Ga] Gallium PSMA-11 (sum of stereosiomers), HPLC [8]: 99.57%
- [^68Ga] Gallium free, HPLC [8]: 0.00%
- [^68Ga] Gallium main degradant, HPLC [8]: 0.00%
- [^68Ga] Gallium PSMA-11 (sum of stereosiomers), HPLC [9]: 100.00%
- [^68Ga] Gallium free, HPLC [9]: 0.00%
- [^68Ga] Gallium main degradant, HPLC [9]: 0.00%
- [^68Ga] Gallium PSMA-11 (sum of stereosiomers), HPLC [10]: 99.59%
- [^68Ga] Gallium free, HPLC [10]: 0.00%
- [^68Ga] Gallium main degradant, HPLC [10]: 0.41%
- [^68Ga] Gallium PSMA-11 (sum of stereosiomers), HPLC [11]: 99.69%
- [^68Ga] Gallium free, HPLC [11]: 0.00%
- [^68Ga] Gallium main degradant, HPLC [11]: 0.06%
- [^68Ga] Gallium PSMA-11 (sum of stereosiomers), HPLC [12]: 100.00%
- [^68Ga] Gallium free, HPLC [12]: 0.00%
- [^68Ga] Gallium main degradant, HPLC [12]: 0.00%
- [^68Ga] Gallium PSMA-11 (sum of stereosiomers), HPLC [13]: 100.00%
- [^68Ga] Gallium free, HPLC [13]: 0.00%
- [^68Ga] Gallium main degradant, HPLC [13]: 0.00%
- [^68Ga] Gallium PSMA-11 (sum of stereosiomers), HPLC [14]: 98.75%
- [^68Ga] Gallium free, HPLC [14]: 0.00%
- [^68Ga] Gallium main degradant, HPLC [14]: 0.54%
- [^68Ga] Gallium PSMA-11 (sum of stereosiomers), HPLC [15]: 99.05%
- [^68Ga] Gallium free, HPLC [15]: 0.03%
- [^68Ga] Gallium main degradant, HPLC [15]: 0.42%
- [^68Ga] Gallium PSMA-11 (sum of stereosiomers), HPLC [16]: 99.82%
- [^68Ga] Gallium free, HPLC [16]: 0.00%
- [^68Ga] Gallium main degradant, HPLC [16]: 0.00%
- [^68Ga] Gallium PSMA-11 (sum of stereosiomers), HPLC [17]: 99.69%
- [^68Ga] Gallium free, HPLC [17]: 0.00%
- [^68Ga] Gallium main degradant, HPLC [17]: 0.06%
- [^68Ga] Gallium PSMA-11 (sum of stereosiomers), HPLC [18]: 99.37%
- [^68Ga] Gallium free, HPLC [18]: 0.00%
- [^68Ga] Gallium main degradant, HPLC [18]: 0.49%
- [^68Ga] Gallium PSMA-11 (sum of stereosiomers), HPLC [19]: 99.03%
- [^68Ga] Gallium free, HPLC [19]: 0.00%
- [^68Ga] Gallium main degradant, HPLC [19]: 0.38%
- [^68Ga] Gallium PSMA-11 (sum of stereosiomers), HPLC [20]: 98.20%
- [^68Ga] Gallium free, HPLC [20]: 0.00%
- [^68Ga] Gallium main degradant, HPLC [20]: 0.37%
- [^68Ga] Gallium PSMA-11 (sum of stereosiomers), HPLC [21]: 99.44%
- [^68Ga] Gallium free, HPLC [21]: 0.00%
- [^68Ga] Gallium main degradant, HPLC [21]: 0.44%
- [^68Ga] Gallium PSMA-11 (sum of stereosiomers), HPLC [22]: 99.21%
- [^68Ga] Gallium free, HPLC [22]: 0.00%
- [^68Ga] Gallium main degradant, HPLC [22]: 0.33%
- [^68Ga] Gallium PSMA-11 (sum of stereosiomers), HPLC [23]: 99.23%
- [^68Ga] Gallium free, HPLC [23]: 0.00%
- [^68Ga] Gallium main degradant, HPLC [23]: 0.46%
